{
  "source": "patent US20260070895A1",
  "about": "“CRYSTALLINE FORMS” (QUIMATRYX, S.L., priority 2022, published 2026)",
  "test": "Photostability at solid state (chemical purity by HPLC after illumination)",
  "assay_type": "physicochemical",
  "details": "for HPLC peak area, QTX125 RRT 1.00 / HPLC peak area, RRT 1.04 / degradation (in words) / HPLC peak area, RRT 1.12 / colour change of the solid material / HPLC peak area, RRT 1.08 / HPLC peak area, RRT 1.11 / HPLC peak area, RRT 1.20: solid-state; for degradation (in words): up to 171 hours",
  "procedure": "The method for determining purity by HPLC—used throughout these examples—used the following parameters:\nThe photostability of novel crystalline forms of QTX125 was assessed at solid state and in solution. Where ‘forced illumination’ conditions were used, samples were illuminated at 12 Klux/hour and 2.8 UV W/m^2/hour. Samples were stored at a temperature of 30° C. Following incubation, the chemical purity of QTX125 was measured by HPLC.\nThe following index is provided to aid navigation of the data presented in Tables 3.1.1 to 3.3.6: • 3.1.x—Assessment of the photostability of QTX125 Form 2. • 3.2.x—Assessment of the photostability of amorphous QTX125. • 3.3.x—Assessment of the photostability of the QTX125 1:2 L-Lysine adduct. • 3.x.1—Samples (at solid state) stored in unsealed clear glass bottles, subject to forced illumination. • 3.x.2—Samples (at solid state) sealed under nitrogen in clear glass bottles, subject to forced illumination. • 3.x.3—Samples (at solid state) sealed under nitrogen in amber glass bottles, illuminated under ambient laboratory conditions • 3.x.4—Samples (at solid state) sealed under nitrogen in amber glass bottles, subject to forced illumination. • 3.x.5—Samples (in solution) sealed under nitrogen in amber glass bottles, illuminated under ambient laboratory conditions. • 3.x.6—Samples (in solution) sealed under nitrogen in amber glass bottles, subject to forced illumination.",
  "key": {"[1]": {"details": "sealed under nitrogen in amber glass bottles, ambient laboratory conditions, 0 hours"}, "[2]": {"details": "sealed under nitrogen in amber glass bottles, ambient laboratory conditions, 3 hours"}, "[3]": {"details": "sealed under nitrogen in amber glass bottles, ambient laboratory conditions, 26 hours"}, "[4]": {"details": "sealed under nitrogen in amber glass bottles, ambient laboratory conditions, 74 hours"}, "[5]": {"details": "sealed under nitrogen in amber glass bottles, ambient laboratory conditions, 171 hours"}, "[6]": {"details": "sealed under nitrogen in amber glass bottles, ambient laboratory conditions, 171 hours, listed as Form 2"}, "[7]": {"details": "sealed under nitrogen in amber glass bottles, forced illumination, 0 hours"}, "[8]": {"details": "sealed under nitrogen in amber glass bottles, forced illumination, 3 hours"}, "[9]": {"details": "sealed under nitrogen in amber glass bottles, forced illumination, 26 hours"}, "[10]": {"details": "sealed under nitrogen in amber glass bottles, forced illumination, 74 hours"}, "[11]": {"details": "sealed under nitrogen in amber glass bottles, forced illumination, 171 hours"}, "[12]": {"details": "sealed under nitrogen in amber glass bottles, forced illumination, 171 hours, listed as Form 2"}, "[13]": {"details": "sealed under nitrogen in clear glass bottles, forced illumination"}, "[14]": {"details": "sealed under nitrogen in clear glass bottles, forced illumination, 0 hours"}, "[15]": {"details": "sealed under nitrogen in clear glass bottles, forced illumination, 3 hours"}, "[16]": {"details": "sealed under nitrogen in clear glass bottles, forced illumination, 26 hours"}, "[17]": {"details": "sealed under nitrogen in clear glass bottles, forced illumination, 74 hours"}, "[18]": {"details": "sealed under nitrogen in clear glass bottles, forced illumination, 171 hours"}, "[19]": {"details": "unsealed clear glass bottles, forced illumination, 0 hours"}, "[20]": {"details": "unsealed clear glass bottles, forced illumination, 3 hours"}, "[21]": {"details": "unsealed clear glass bottles, forced illumination, 26 hours"}, "[22]": {"details": "unsealed clear glass bottles, forced illumination, 74 hours"}},
  "note": "Entries after “also recorded” stand apart in the source; their conditions may differ.",
  "data": [
    {"smiles": "O=C(NO)c1ccc(CNC(=O)c2[nH]c(-c3ccc(O)cc3)cc2-c2ccoc2)cc1", "note": "[QTX125 Form 2, 3-(3-Furyl)-N-{4-[(hydroxyamino)carbonyl]benzyl}-5-(4-hydroxyphenyl)-1H-pyrrole-2-carboxamide]", "values": [
      {"measurement": "photostability as compared to amorphous QTX125", "setting": "at solid state", "value": "enhanced photostability; also recorded: improved photostability"},
      {"measurement": "HPLC peak area, QTX125 RRT 1.00", "setting": "[1]", "value": 98.21, "unit": "%"},
      {"measurement": "HPLC peak area, RRT 1.04", "setting": "[1]", "value": 0.98, "unit": "%"},
      {"measurement": "HPLC peak area, QTX125 RRT 1.00", "setting": "[2]", "value": 97.35, "unit": "%"},
      {"measurement": "HPLC peak area, RRT 1.04", "setting": "[2]", "value": 1.06, "unit": "%"},
      {"measurement": "HPLC peak area, QTX125 RRT 1.00", "setting": "[3]", "value": 98.11, "unit": "%"},
      {"measurement": "HPLC peak area, RRT 1.04", "setting": "[3]", "value": 1.07, "unit": "%"},
      {"measurement": "HPLC peak area, QTX125 RRT 1.00", "setting": "[4]", "value": 98.83, "unit": "%"},
      {"measurement": "HPLC peak area, RRT 1.04", "setting": "[4]", "value": 0.55, "unit": "%"},
      {"measurement": "HPLC peak area, QTX125 RRT 1.00", "setting": "[5]", "value": 98.12, "unit": "%"},
      {"measurement": "HPLC peak area, RRT 1.04", "setting": "[5]", "value": 1.21, "unit": "%"},
      {"measurement": "HPLC peak area, QTX125 RRT 1.00", "setting": "[6]", "value": 98.12, "unit": "%"},
      {"measurement": "HPLC peak area, RRT 1.04", "setting": "[6]", "value": 1.21, "unit": "%"},
      {"measurement": "degradation (in words)", "setting": "sealed under nitrogen in amber glass bottles, ambient laboratory conditions", "value": "little evidence of degradation"},
      {"measurement": "HPLC peak area, QTX125 RRT 1.00", "setting": "[7]", "value": 98.21, "unit": "%"},
      {"measurement": "HPLC peak area, RRT 1.04", "setting": "[7]", "value": 0.98, "unit": "%"},
      {"measurement": "HPLC peak area, QTX125 RRT 1.00", "setting": "[8]", "value": 98.23, "unit": "%"},
      {"measurement": "HPLC peak area, RRT 1.04", "setting": "[8]", "value": 0.99, "unit": "%"},
      {"measurement": "HPLC peak area, QTX125 RRT 1.00", "setting": "[9]", "value": 97.82, "unit": "%"},
      {"measurement": "HPLC peak area, RRT 1.04", "setting": "[9]", "value": 1.22, "unit": "%"},
      {"measurement": "HPLC peak area, QTX125 RRT 1.00", "setting": "[10]", "value": 97.70, "unit": "%"},
      {"measurement": "HPLC peak area, RRT 1.04", "setting": "[10]", "value": 1.06, "unit": "%"},
      {"measurement": "HPLC peak area, QTX125 RRT 1.00", "setting": "[11]", "value": 95.40, "unit": "%"},
      {"measurement": "HPLC peak area, RRT 1.04", "setting": "[11]", "value": 2.55, "unit": "%"},
      {"measurement": "HPLC peak area, RRT 1.12", "setting": "[11]", "value": 0.28, "unit": "%"},
      {"measurement": "HPLC peak area, QTX125 RRT 1.00", "setting": "[12]", "value": 95.40, "unit": "%"},
      {"measurement": "HPLC peak area, RRT 1.04", "setting": "[12]", "value": 2.55, "unit": "%"},
      {"measurement": "HPLC peak area, RRT 1.12", "setting": "[12]", "value": 0.28, "unit": "%"},
      {"measurement": "degradation (in words)", "setting": "sealed under nitrogen in amber glass bottles, forced illumination", "value": "degrade slightly"},
      {"measurement": "colour change of the solid material", "setting": "[13]", "value": "change in colour from off white to dark green"},
      {"measurement": "HPLC peak area, QTX125 RRT 1.00", "setting": "[14]", "value": 98.21, "unit": "%"},
      {"measurement": "HPLC peak area, RRT 1.04", "setting": "[14]", "value": 0.98, "unit": "%"},
      {"measurement": "HPLC peak area, QTX125 RRT 1.00", "setting": "[15]", "value": 97.78, "unit": "%"},
      {"measurement": "HPLC peak area, RRT 1.04", "setting": "[15]", "value": 1.29, "unit": "%"},
      {"measurement": "HPLC peak area, QTX125 RRT 1.00", "setting": "[16]", "value": 96.16, "unit": "%"},
      {"measurement": "HPLC peak area, RRT 1.04", "setting": "[16]", "value": 2.16, "unit": "%"},
      {"measurement": "HPLC peak area, QTX125 RRT 1.00", "setting": "[17]", "value": 84.98, "unit": "%"},
      {"measurement": "HPLC peak area, RRT 1.04", "setting": "[17]", "value": 5.99, "unit": "%"},
      {"measurement": "HPLC peak area, RRT 1.08", "setting": "[17]", "value": 1.24, "unit": "%"},
      {"measurement": "HPLC peak area, RRT 1.11", "setting": "[17]", "value": 0.52, "unit": "%"},
      {"measurement": "HPLC peak area, RRT 1.20", "setting": "[17]", "value": 0.66, "unit": "%"},
      {"measurement": "HPLC peak area, QTX125 RRT 1.00", "setting": "[18]", "value": 82.33, "unit": "%"},
      {"measurement": "HPLC peak area, RRT 1.04", "setting": "[18]", "value": 9.95, "unit": "%"},
      {"measurement": "HPLC peak area, RRT 1.08", "setting": "[18]", "value": 0.41, "unit": "%"},
      {"measurement": "HPLC peak area, RRT 1.11", "setting": "[18]", "value": 0.86, "unit": "%"},
      {"measurement": "HPLC peak area, RRT 1.20", "setting": "[18]", "value": 0.22, "unit": "%"},
      {"measurement": "degradation (in words)", "setting": "[13]", "value": "degrade to two principal components"},
      {"measurement": "colour change of the solid material", "setting": "unsealed clear glass bottles, forced illumination", "value": "change in colour from off white to dark green"},
      {"measurement": "HPLC peak area, QTX125 RRT 1.00", "setting": "[19]", "value": 98.21, "unit": "%"},
      {"measurement": "HPLC peak area, RRT 1.04", "setting": "[19]", "value": 0.98, "unit": "%"},
      {"measurement": "HPLC peak area, QTX125 RRT 1.00", "setting": "[20]", "value": 97.68, "unit": "%"},
      {"measurement": "HPLC peak area, RRT 1.04", "setting": "[20]", "value": 1.38, "unit": "%"},
      {"measurement": "HPLC peak area, QTX125 RRT 1.00", "setting": "[21]", "value": 95.59, "unit": "%"},
      {"measurement": "HPLC peak area, RRT 1.04", "setting": "[21]", "value": 2.38, "unit": "%"},
      {"measurement": "HPLC peak area, QTX125 RRT 1.00", "setting": "[22]", "value": 90.53, "unit": "%"},
      {"measurement": "HPLC peak area, RRT 1.04", "setting": "[22]", "value": 4.90, "unit": "%"},
      {"measurement": "HPLC peak area, QTX125 RRT 1.00", "setting": "unsealed clear glass bottles, forced illumination, 171 hours", "value": 83.78, "unit": "%"}
    ]}
  ]
}
